Measurements taken from patent publication US20230122249A1, “1H-PYRAZOLO[4,3-d]PYRIMIDINE COMPOUNDS AS TOLL-LIKE RECEPTOR 7 (TLR7) AGONISTS” (BRISTOL-MYERS SQUIBB COMPANY, priority 2020, published 2023).

Columns and labels:
human TLR7 = molecular target: T1, human TLR7 (Homo sapiens, UniProt Q9NYK1); test: Human TLR7 agonist activity (hTLR7 reporter) assay in HEK-Blue TLR7 cells, SEAP readout; format: cell-based; details: 18 h treatment, average where assay repeated
T1 construct: host or cells: HEK-Blue TLR7 cells (engineered human embryonic kidney cells)
T1 sequence (Q9NYK1 27-1049): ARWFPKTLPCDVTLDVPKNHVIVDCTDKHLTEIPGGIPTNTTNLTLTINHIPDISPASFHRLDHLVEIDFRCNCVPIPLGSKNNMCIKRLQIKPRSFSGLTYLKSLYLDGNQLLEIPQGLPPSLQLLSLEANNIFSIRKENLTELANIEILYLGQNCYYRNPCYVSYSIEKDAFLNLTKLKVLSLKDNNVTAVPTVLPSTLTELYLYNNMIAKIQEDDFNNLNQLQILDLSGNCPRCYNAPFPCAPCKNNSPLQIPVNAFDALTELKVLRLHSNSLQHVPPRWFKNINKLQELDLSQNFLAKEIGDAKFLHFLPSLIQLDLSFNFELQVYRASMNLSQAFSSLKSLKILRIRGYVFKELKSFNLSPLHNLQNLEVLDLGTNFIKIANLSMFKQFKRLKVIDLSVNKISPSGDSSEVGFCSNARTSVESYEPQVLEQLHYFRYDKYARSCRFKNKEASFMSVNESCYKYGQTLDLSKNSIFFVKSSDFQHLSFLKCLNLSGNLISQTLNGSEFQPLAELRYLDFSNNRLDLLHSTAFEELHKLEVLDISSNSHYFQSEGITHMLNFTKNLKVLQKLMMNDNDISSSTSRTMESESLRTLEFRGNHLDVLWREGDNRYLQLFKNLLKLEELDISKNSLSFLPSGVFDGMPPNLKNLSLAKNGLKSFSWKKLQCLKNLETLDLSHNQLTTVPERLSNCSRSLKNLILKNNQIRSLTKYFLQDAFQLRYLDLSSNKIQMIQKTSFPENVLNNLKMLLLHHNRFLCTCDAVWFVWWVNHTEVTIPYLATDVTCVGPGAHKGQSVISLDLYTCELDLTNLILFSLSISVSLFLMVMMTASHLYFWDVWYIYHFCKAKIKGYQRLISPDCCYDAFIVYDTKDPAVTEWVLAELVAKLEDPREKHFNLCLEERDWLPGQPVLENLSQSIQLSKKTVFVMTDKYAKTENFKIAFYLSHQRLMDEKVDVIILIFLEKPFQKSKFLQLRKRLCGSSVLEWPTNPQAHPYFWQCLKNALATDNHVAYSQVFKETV
Description: This procedure describes a method for assaying human TLR7 (hTLR7) agonist activity of the compounds disclosed in this specification.
HEK-Blue™ TLR7 cells were added to each well of a 384-well tissue-culture plate (15,000 cells per well) and incubated 16-18 h at 37° C., 5% CO2. Compounds (100 nl) were dispensed into wells containing the HEK-Blue™ TLR cells and the treated cells were incubated at 37° C., 5% CO2. After 18 h treatment ten microliters of freshly-prepared Quanti-Blue™ reagent (Invivogen) was added to each well, incubated for 30 min (37° C., 5% CO2) and SEAP levels measured using an Envision plate reader (OD=620 nm). The half maximal effective concentration values (EC50; compound concentration which induced a response halfway between the assay baseline and maximum) were calculated.

[1] = tested on: CD69 in human whole blood; test: Induction of CD69 in human whole blood (hWB); format: cell-based; details: heparinized human whole blood, 17 h, CD69 surface staining; 100% set to 1 uM resiquimod; average where assay repeated
Description: The induction of Type I interferon (IFN) MX-1 genes and the B-cell activation marker CD69 are downstream events that occur upon activation of the TLR7 pathway. The following is a human whole blood assay that measures their induction in response to a TLR7 agonist.
Heparinized human whole blood was harvested from human subjects and treated with test TLR7 agonist compounds at 1 mM. The blood was diluted with RPMI 1640 media and Echo was used to predot 10 nL per well giving a final concentration of 1 uM (10 nL in 10 uL of blood). After mixing on a shaker for 30 sec, the plates were covered and placed in a 37° C. chamber for o/n=17 hrs. Fixing/lysis buffer was prepared (5×->1×in H2O, warm at 37° C.; Cat# BD 558049) and kept the perm buffer (on ice) for later use.
For surface markers staining (CD69): prepared surface Abs: 0.045 ul hCD14-FITC (ThermoFisher Cat # MHCD1401)+0.6 ul hCD19-ef450 (ThermoFisher Cat #48-0198-42)+1.5 ul hCD69-PE (cat# BD555531)+0.855 ul FACS buffer. Added 3 ul/well, spin1000 rpm for 1 min and mixed on shaker for 30 sec, put on ice for 30 mins. Stop stimulation after 30 minutes with 70 uL of prewarmed 1×fix/lysis buffer and use Feliex mate to resuspend (15 times, change tips for each plate) and incubate at 37° C. for 10 minutes.
Centrifuge at 2000 rpm for 5 minutes aspirate with HCS plate washer, mix on shaker for 30 sec and then wash with 70 uL in dPBS and pelleted 2 xs (2000 rpm for 5 min) and 50 ul wash in FACS buffer pelleted 1 xs(2000 rpm for 5 min). Mix on shaker for 30 sec. For Intracellular markers staining (MX-1): Add 50 ul of BD Perm buffer III and mix on shaker for 30 sec. Incubate on ice for 30 minutes (in the dark). Wash with 50 uL of FACS buffer 2×(spin @2300 rpm×5 min after perm) followed by mixing on shaker for 30 sec. Resuspended in 20 ul of FACS buffer containing MX1 antibody ( )(4812)-Alexa 647: Novus Biologicals #NBP2-43704AF647) 20 ul FACS bf+0.8 ul hlgG+0.04 ul MX-1. Spin 1000 rpm for 1 min, mix on shaker for 30 se and the samples were incubated at RT in the dark for 45 minutes followed by washing 2×FACS buffer (spin @2300 rpm×5 min after perm). Resuspend 20 ul (35 uL total per well) of FACS buffer and cover with foil and place in 4° C. to read the following day. Plates were read on iQuePlus. The results were loaded into toolset and […] curves are generated in curve master. The y-axis 100% is set to 1 uM of resiquimod.

| EC50 (human TLR7) | EC50 [1] | Structure (SMILES) |
| --- | --- | --- |
| 141 nM | 122 nM | COc1cc(CN2CC3(CCOCC3)C2)ccc1Cn1ncc2nc(N)nc(NCC3CC4(C3)CC4F)c21 (stereo not shown) [Compound 117] |
| 144 nM | 258 nM | COc1cc(CN2C[C@H]3COC[C@H]3C2)ccc1Cn1ncc2nc(N)nc(NCC3CC4(C3)CC4F)c21 (stereo partly shown) [Compound 119] |
| 358 nM | 160 nM | COc1cc(CN2CC3(C2)CN(C(C)=O)C3)ccc1Cn1ncc2nc(N)nc(NCC3CC4(C3)CC4F)c21 (stereo not shown) [Compound 121] |
| 214 nM | 413 nM | COc1cc(CN2CC3(CCO3)C2)ccc1Cn1ncc2nc(N)nc(NCC3CC4(C3)CC4F)c21 (stereo not shown) [Compound 127] |
| 234 nM | 4.6 nM | COc1cc(CN2CC3(CN(C)C3)C2)ccc1Cn1ncc2nc(N)nc(NCC3CC4(CC4)C3)c21 [Compound 131] |
| 382 nM | 464 nM | COc1cc(CN2CC3(C2)CS(=O)(=O)C3)ccc1Cn1ncc2nc(N)nc(NCC3CC4(C3)CC4(F)F)c21 (stereo not shown) [Compound 139] |
| 266 nM | 244 nM | COc1cc(CN2C[C@@H]3C[C@H]2CN3)ccc1Cn1ncc2nc(N)nc(NCC3CC4(C3)CC4(F)F)c21 (stereo partly shown) [Compound 141] |
| 179 nM | 326 nM | COc1cc(CN2CC3(C2)CS(=O)(=O)C3)ccc1Cn1ncc2nc(N)nc(NCC3CC4(CC4)C3)c21 (stereo not shown) [Compound 145] |
| 42.5 nM | 8.9 nM | COc1cc(CN2CC3(CC(O)C3)C2)ccc1Cn1ncc2nc(N)nc(NCC3CC4(CC4)C3)c21 (stereo not shown) [Compound 146] |
| 40.5 nM | 37 nM | COc1cc(CN2CC3(CC(OC)C3)C2)ccc1Cn1ncc2nc(N)nc(NCC3CC4(CC4)C3)c21 (stereo not shown) [Compound 147] |
| 74.2 nM | 9.6 nM | COc1cc(CN2C[C@H]3CN(C)C[C@H]3C2)ccc1Cn1ncc2nc(N)nc(NCC3CC4(CC4)C3)c21 [Compound 148] |
| 42 nM | 31 nM | COc1cc(C(=O)N2CC3(CN(C)C3)C2)ccc1Cn1ncc2nc(N)nc(NCC3CC4(C3)CC4(F)F)c21 (stereo not shown) [Compound 149] |
| 9.4 nM | 17.2 nM | COc1cc(C(=O)N2C[C@H]3CN(C)C[C@H]3C2)ccc1Cn1ncc2nc(N)nc(NCC3CC4(C3)CC4(F)F)c21 (stereo partly shown) [Compound 150] |
| 45 nM | 32.4 nM | COc1cc(C(=O)N2C[C@@H]3C[C@H]2CN3C)ccc1Cn1ncc2nc(N)nc(NCC3CC4(C3)CC4(F)F)c21 (stereo partly shown) [Compound 151] |
| 167 nM | 152 nM | COc1cc(CN2CC3(CNC3)C2)ccc1Cn1ncc2nc(N)nc(NCC3CC(C4CC4)C3)c21 (stereo not shown) [Compound 152] |
| 30.5 nM | 189 nM | COc1cc(CNC2CCC2)ccc1Cn1ncc2nc(N)nc(NCC3CC4(CCC4)C3)c21 [Compound 153] |
| 26.9 nM | 130 nM | COc1cc(CNC2CCOCC2)ccc1Cn1ncc2nc(N)nc(NCC3CC4(CCC4)C3)c21 [Compound 154] |
| 583 nM | 552 nM | COc1cc(CN2CC3(CNC3)C2)ccc1Cn1ncc2nc(N)nc(NCC3CC4(CCC4)C3)c21 [Compound 155] |

| EC50 (human TLR7) | EC50 [1] | Structure (SMILES) |
| --- | --- | --- |
| 76.9 nM | 374 nM | COc1cc(CN2C[C@@H]3C[C@H]2CN3)ccc1Cn1ncc2nc(N)nc(NCC3CC4(CCC4)C3)c21 [Compound 156] |
| 65.7 nM | 364 nM | COc1cc(CN2C[C@H]3CNC[C@H]3C2)ccc1Cn1ncc2nc(N)nc(NCC3CC4(CCC4)C3)c21 [Compound 157] |
| 38 nM | 39.1 nM | COc1cc(CN2CC3(CC(O)C3)C2)ccc1Cn1ncc2nc(N)nc(NCC3CC4(CCC4)C3)c21 (stereo not shown) [Compound 158] |
| 909 nM | 1000 nM | COc1cc(C(=O)N2C[C@H]3CNC[C@H]3C2)ccc1Cn1ncc2nc(N)nc(NCC3CC4(C3)CC4(F)F)c21 (stereo partly shown) [Compound 159] |
| 705 nM | 268 nM | COc1cc(C(=O)NCCN(C)C)ccc1Cn1ncc2nc(N)nc(NCC3CC4(C3)CC4(F)F)c21 (stereo not shown) [Compound 163] |
| 261 nM | 117 nM | COc1cc(CO)ccc1Cn1ncc2nc(N)nc(NCC3CC4(CC4)C3)c21 [Compound 166, (4-((5-amino-7-((spiro[2.3]hexan-5-ylmethyl)amino)-1H-pyrazolo[4,3-d]pyrimidin-1-yl)methyl)-3-methoxyphenyl)methanol] |
| 23 nM | 1.7 nM | COc1cc(CN[C@H]2C[C@H](O)C2)ccc1Cn1ncc2nc(N)nc(NCC3CC4(CC4)C3)c21 [Compound 167] |
| 30.4 nM | 3.8 nM | COc1cc(CN2CC(CCO)C2)ccc1Cn1ncc2nc(N)nc(NCC3CC4(CC4)C3)c21 [Compound 168] |
| 28 nM | 4.5 nM | COc1cc(CN2C[C@H]3CNC[C@H]3C2)ccc1Cn1ncc2nc(N)nc(NCC3CC4(CC4)C3)c21 [Compound 169] |
| 18.5 nM | 2.1 nM | COc1cc(CNCCO)ccc1Cn1ncc2nc(N)nc(NCC3CC4(CC4)C3)c21 [Compound 170] |
| 17 nM | 2.8 nM | COc1cc(C(=O)N2CCNCC2)ccc1Cn1ncc2nc(N)nc(NCC3CC4(CC4)C3)c21 [Compound 171] |
| 785 nM | 300 nM | COc1cc(C(=O)N2CC3(CNC3)C2)ccc1Cn1ncc2nc(N)nc(NCC3CC4(CC4)C3)c21 [Compound 172] |
| 20.9 nM | 5.4 nM | COc1cc(C(=O)N2CC3(CN(C)C3)C2)ccc1Cn1ncc2nc(N)nc(NCC3CC4(CC4)C3)c21 [Compound 173] |
| 93.1 nM | 934 nM | COc1cc(C(=O)N2CC3(COC3)C2)ccc1Cn1ncc2nc(N)nc(NCC3CC4(CC4)C3)c21 [Compound 174] |
| 96.5 nM | 48.8 nM | COc1cc(C(=O)N2C[C@H]3CNC[C@H]3C2)ccc1Cn1ncc2nc(N)nc(NCC3CC4(CC4)C3)c21 [Compound 175] |
| 10.8 nM | 3.6 nM | COc1cc(C(=O)N2C[C@H]3CN(C)C[C@H]3C2)ccc1Cn1ncc2nc(N)nc(NCC3CC4(CC4)C3)c21 [Compound 176] |
| 579 nM | 359 nM | COc1cc(C(=O)N[C@H]2C[C@H](O)C2)ccc1Cn1ncc2nc(N)nc(NCC3CC4(CC4)C3)c21 [Compound 177] |
